# Data taken from article PMC11170107, “Development of a new hazard scoring system in primary neuronal cell cultures for drug-induced acute neuronal toxicity identification in early drug discovery” (Frontiers in Pharmacology, 2024).
# Entries after “also recorded” stand apart in the source; their conditions may differ.
# Key:
# [1] = WHO adverse drug reactions VigiBase; ref Kumlien and Lundberg, 2010; cited from earlier work
# [2] = ref National library of medicine, Daylimed; cited from earlier work
# [3] = seizure ADR frequency in SIDER; ref Campillos et al., 2008; Kuhn et al., 2010; cited from earlier work
# [4] = Supplementary Table S1; cited from earlier work
# [5] = tested on: rat primary cortical neurons; test: MEA hazard scoring in rat primary cortical neuronal cultures; conditions: for hazard classification in the hazard scoring system: rat primary neurons on MEA
# [6] = established from VigiBase, SIDER, Elsevier drug information and FDA prescribing information
# [7] = statistical tolerance interval of the ΔΔ% effect, One-sided interval
Molecule,Percentage seizures of total number of ADRs [1],Free Cmax highest [4],Classification* (degree of seizure risk) [6],further results
CN(C)CCC=C1c2ccccc2CCc2ccccc21 [Amitriptyline],1.447%,173 nM,–,"FDA prescription information at therapeutic dose (Convulsion/ Seizure/Lower the seizure threshold/withdrawal) [2]: not found on label; SIDER ADR on-/off-label [3]: no frequency information; Area.Under.Cross.Correlation Lower.TI [5, 7]: -100; Area.Under.Cross.Correlation Upper.TI [5, 7]: -28.75; Burst.Duration...Avg.(s. Lower.TI) [5, 7]: -100; Burst.Duration...Avg.(s. Upper.TI) [5, 7]: 2740; Mean.Firing.Rate..Hz. Lower.TI [5, 7]: -100; Mean.Firing.Rate..Hz. Upper.TI [5, 7]: -25.19; Median.Mean.ISI Lower.TI [5, 7]: -60.49; Median.Mean.ISI Upper.TI [5, 7]: 9.96"
COc1ccc(COc2ccc(Cc3cnc(N)nc3N)cc2OC)cc1 [GW-2580],–,–,Risk,–
CCN(CC)CCCC(C)Nc1c2ccc(Cl)cc2nc2ccc(OC)cc12 (centres unmarked) [Quinacrine],1.17%,130 nM,No risk,FDA prescription information at therapeutic dose (Convulsion/ Seizure/Lower the seizure threshold/withdrawal) [2]: not found on label
CCCCCCOc1nsnc1C1=CCCN(C)C1 [Xanomeline],–,–,Risk,–
COC(=O)C1=C(C)NC(C)=C([N+](=O)[O-])C1c1ccccc1C(F)(F)F (centres unmarked) [BayK 8644],–,–,No risk,–
C1CCc2nnnn2CC1 [Pentylenetetrazole],–,–,Risk,–
Cc1ccc(-c2cc(C(F)(F)F)nn2-c2ccc(S(N)(=O)=O)cc2)cc1 [Celecoxib],0.3553%,410 nM,–,FDA prescription information at therapeutic dose (Convulsion/ Seizure/Lower the seizure threshold/withdrawal) [2]: not found on label; SIDER ADR on-/off-label [3]: not found on label; hazard classification in the hazard scoring system [5]: high hazard
Tertiapin,–,–,Low risk,–
NN [Hydrazine],–,–,Risk,–
Cc1cc2c(s1)Nc1ccccc1N=C2N1CCN(C)CC1 [Olanzapine],–,–,No risk,–
CNC(=O)c1cc(Oc2ccc3nc(N[C@@H]4CCCC[C@H]4O)sc3c2)ccn1 [Sotuletinib],–,–,Risk,–
C[C@](N)(Cc1ccc(O)c(O)c1)C(=O)O [Methyldopa],0.1002%,3300 nM,–,FDA prescription information at therapeutic dose (Convulsion/ Seizure/Lower the seizure threshold/withdrawal) [2]: not found on label; SIDER ADR on-/off-label [3]: not found on label; hazard classification in the hazard scoring system [5]: high hazard
CCN1C(=O)OC(C)(C)C1=O [Ethadione],–,–,Risk,–
O=C1c2ccccc2C(Cc2ccncc2)(Cc2ccncc2)c2ccccc21 [XE-991],–,–,Risk,–
O=C1NC(=O)C(c2ccccc2)(c2ccccc2)N1 [Phenytoin],8.075%,8127 nM,–,FDA prescription information at therapeutic dose (Convulsion/ Seizure/Lower the seizure threshold/withdrawal) [2]: On label; SIDER ADR on-/off-label [3]: infrequent (0.1-1%); hazard classification in the hazard scoring system [5]: hazards; also recorded: high hazard
"Cc1ccc(COC(=O)N2CC[C@H](CNc3ncccn3)[C@H](F)C2)cc1 [Rislenemdaz (CERC-301), Rislenemdaz]",–,4 nM,Risk,–
NS(=O)(=O)c1cc2c(cc1Cl)NC(C1CC3C=CC1C3)NS2(=O)=O (centres unmarked) [Cyclothiazide],0%,3000 nM,Risk,–
"N[C@@]1(C(=O)O)CC[C@H]2[C@H](C(=O)O)[C@H]21 [Eglumetad (LY354740), Eglumetad]",–,–,Risk,–
O=C1C[C@@H]2OCC=C3CN4CC[C@]56c7ccccc7N1[C@H]5[C@H]2[C@H]3C[C@H]46 [Strychnine],0%,–,Risk,–
NC(CCP(=O)(O)O)C(=O)O [L-AP 4],–,–,Risk,–
[Br-].[K+] [Potassium bromide],4.831%,–,No risk,FDA prescription information at therapeutic dose (Convulsion/ Seizure/Lower the seizure threshold/withdrawal) [2]: not found on label
